Results taken from patent US20220348868A1, “METHOD OF PRODUCING SKIN-DERIVED PRECURSOR CELLS” (KAO CORPORATION, priority 2014, published 2022).

Tested on: human iPS cell-derived neural crest stem cells
Assay: Induction of differentiation from human iPS cell-derived neural crest stem cells to SKPs, observed by microphotograph
Type: cell-based
Conditions: CHIR99021 added at 0.5 micromolar to 5 micromolars (tested 0, 0.1, 0.5, 3, 5 micromolar)
Procedure: Based on the method described in Nature protocols, 5, pp. 688-701 (2010) or Cell reports, 3, pp. 1140-1152 (2013), the iPS cells subjected to the passage culture in Test Example 1 were cultured in a culture medium prepared by adding noggin (catalog number: 6057-NG-100/CF, 500 ng/mL, manufactured by R&D Systems, Inc.) and/or SB431542 (catalog number: 1614, 10 micromolars, manufactured by TOCRIS Bioscience) to a hES medium (−) bFGF for 5 days to 2 weeks to induce differentiation from human iPS cells to neural crest stem cells. The above-described iPS cell-derived neural crest stem cells were cultured in a D-MEM/F12 medium (catalog number: 10565-018, manufactured by Life Technologies Corporation) containing B-27 supplement (catalog number: 17504-044, 2% by mass, manufactured by life Technologies Corporation), EGF (catalog number: 336-EG-200, 20 ng/mL, manufactured by R&D Systems, Inc.), bFGF (catalog number: 064-04541, 40 ng/mL, manufactured by Wako Pure Chemical Industries, Ltd.), penicillin/streptomycin (catalog number: 15140-122, 50U, 50 microgram/mL, manufactured by Life Technologies Corporation) and 0 micromolar to 5 micromolars of CHIR99021 (catalog number 13122, manufactured by Cayman Chemical Company). […]

Cc1c[nH]c(-c2cnc(NCCNc3ccc(C#N)cn3)nc2-c2ccc(Cl)cc2Cl)n1 [CHIR99021]
amount of cells differentiated to SKPs, after passage culture (P1) (after selective passage culture of SKPs, FIG. 2, P1): a larger amount of the cells differentiated to SKPs grew | amount of cells differentiated to SKPs, before passage culture (P0) (culture 3 to 5 days, FIG. 2, P0): a larger amount of the cells differentiated to SKPs was migrated in a peripheral area of the colony
